Experimental data published in publication PMC8093080 (Biochemistry, 2020).

Biological target: T1, trp RNA-binding attenuation protein (TRAP) (Geobacillus stearothermophilus, UniProt Q9X6J6)
T1 sequence (Q9X6J6 1-74): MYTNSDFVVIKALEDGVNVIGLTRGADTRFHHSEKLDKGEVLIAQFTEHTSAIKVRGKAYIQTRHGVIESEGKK
Experiment: ITC at […]°C in phosphate buffer

- Kd: 115 ± 3 nM
Structure (SMILES): N[C@@H](Cc1c[nH]c2ccccc12)C(=O)O [Trp, tryptophan]
